# Laboratory results reported in article PMC5995442, “Drug discovery with an RBM20 dependent titin splice reporter identifies cardenolides as lead structures to improve cardiac filling” (PLoS ONE, 2018).
# “Also recorded” adds a separate entry of the source. Like-named read-outs stand apart in the source and are kept apart here. Residues, ends and D or L forms follow the SMILES beside them. *: point of attachment. Cbz = O=C(OCc1ccccc1)*
# What was measured:
# [1] = tested on: HEK293.EBNA cells; assay: Cell viability, resazurin based staining (PrestoBlue); design: species or system human; conditions: for IC50: Homo sapiens, HEK293-EBNA, HEK293 cells, 60 h post-transfection, RBM20/titin reporter transfected, read-out: Viability IC50
# Text: (§1) Cells transfected were at a confluency of 50-60%.
# [2] = tested on: RBM20 dependent titin PEVK4-13 splicing reporter; assay: Dual luciferase splicing reporter assay (DLR assay), RBM20 co-transfected; assay type: cell-based, human; conditions: for IC50: Homo sapiens
# Text: The objective of our study was to identify and evaluate small molecules with the potential to modulate alternative splicing via an unbiased chemical high-throughput screening approach. Using transient transfection of a dual luciferase splicing reporter assay (DLR-assay) in HEK293.EBNA cells and a RBM20 expression construct, we investigated >34.000 substances for their effect on alternative exon exclusion from our RBM20 dependent titin PEVK4-13 splicing reporter. For the primary screen (pilot screen), each compound was tested at 10 μM (single point) and compared to an untreated control. Positive hits leading to differential exon usage (exceeding three standard deviations) were picked for independent validation in 9 serial 2-fold dilutions starting at 20 μM. Compounds that produced a concentration dependent effect were validated manually in the 96-well format and cytotoxicity was evaluated. To minimize the detection of false positives, we excluded compounds with structural homology to each luciferase’s natural substrate. To determine the EC50 of candidates we calculated dose response curves using a non-linear least-squares fitting routine available within the GNUPLOT package (accessible online: http://ic50.tk/index.html). […] Compounds that produced a concentration depend effect in the DLR-assay and altered the alternative transcript levels were regarded as validated alternative splicing modulators.
# as §1
# 5000 HEK293.EBNA cells were seeded in clear bottom, white 384-well plates (Corning by Sigma-Aldrich Chemie GmbH, Munich, Germany) using an automated cell dispenser (Biotek, Bad Friedrichshall, Germany). 24 h after cell seeding the expression plasmids were delivered using a Freedom EVO® robotic workstation (TECAN, Maennedorf, Switzerland) equipped with a MultiChannel Arm™. Cells were transiently transfected with 45 ng plasmid DNA ([…] and 40 ng RBM20 or 24 ng of the negative control pcDNA3.1 ad 45 ng with bacterial expression plasmid pBSSK). Compounds were added to the plates the following day using the same robotic platform. Luciferase activity was determined using Dual-Glo® Luciferase Assay System (Promega GmbH, Mannheim, Germany) on an Infinite® M1000 Pro (TECAN, Maennedorf, Switzerland) plate reader around 60 hours post-transfection. Assay robustness was evaluated by calculation z’ scores using an online tool provided by the Screening Unit at FMP Berlin (http://www.screeningunit-fmp.net/tools/z-prime.php).
# [3] = tested on: titin minigene TTN Ex241-43 transcripts; assay: RT-PCR / RT-qPCR of transcripts from titin minigene TTN Ex241-43 (I96-98); assay type: cell-based, human; conditions: HEK293 transfected with RBM20 and minigene I96-98
# Text: The objective of our study was to identify and evaluate small molecules with the potential to modulate alternative splicing via an unbiased chemical high-throughput screening approach. Using transient transfection of a dual luciferase splicing reporter assay (DLR-assay) in HEK293.EBNA cells and a RBM20 expression construct, we investigated >34.000 substances for their effect on alternative exon exclusion from our RBM20 dependent titin PEVK4-13 splicing reporter. For the primary screen (pilot screen), each compound was tested at 10 μM (single point) and compared to an untreated control. Positive hits leading to differential exon usage (exceeding three standard deviations) were picked for independent validation in 9 serial 2-fold dilutions starting at 20 μM. Compounds that produced a concentration dependent effect were validated manually in the 96-well format and cytotoxicity was evaluated. To minimize the detection of false positives, we excluded compounds with structural homology to each luciferase’s natural substrate. To determine the EC50 of candidates we calculated dose response curves using a non-linear least-squares fitting routine available within the GNUPLOT package (accessible online: http://ic50.tk/index.html). We evaluated the effect on splice activity on the RNA level by RT-qPCR of isoforms generated from a titin minigene containing TTN Ex241-43 (corresponding to TTN I-band exon I96-98) in the presence of the potential splice modulators. […]
# Total RNA from HEK293.EBNA cells was extracted using RNeasy Micro Kit (Qiagen, Hilden, Germany) according to the manufacturer’s instructions. […] Quantitative RT-PCR was performed using SYBRGreen master mix (Applied Biosystems by Thermo Fisher Scientific Inc., USA) on a 7900 HT RT-cycler (Applied Biosystems by Thermo Fisher Scientific, Inc., USA). […] To quantification gene expression, we used the ΔΔCT method normalized to 18S or to the alternative transcripts generated from the splicing reporter. PSI values were calculated as ratio of unspliced and spliced reporter transcript. […]
# [4] = molecular target: Na+/K+ ATPase human erythrocytes; design: method as in PMID 11072868; conditions: cited from earlier work
# [5] = tested on: RBM20 protein levels; assay: RBM20 protein expression by immunoblot in co-transfected HEK293 cells; assay type: cell-based, human; conditions: proteasome inhibitor added to digoxin treated HEK293 cells
# Description: For immunodetection, HEK293.EBNA samples were harvested by rinsing them of the cell culture substrate using PBS at 37°C and subsequently used for downstream processing or snap frozen in liquid nitrogen. For protein extraction samples were suspended in RIPA buffer (50 mM Tris pH 8.0, 150 mM NaCl, 1% NP-40, 0.25% sodium deoxycholate, 1.0 mM EDTA; 0.1% SDS) and lysed via sonication with 20 bursts at 70% energy using a VialTweeter (Hielscher Ultrasonics GmbH, Teltow, Germany). Protein concentration was estimated after 20’ precipitation of cell debris at 13,000xg for 20 min at 4°C using BCA assay (Life Technologies GmbH, Darmstadt, Germany [23225]). Samples were kept cool at any time. Lysates were separated by SDS-PAGE [14] and blotted on PVDF membranes. Blotted antigens were probed with mouse anti-c-myc 9E10 ([M5546], Sigma-Aldrich Chemie GmbH, Munich, Germany) tag antibody at 1:2000 and detected using a sheep anti-mouse IgG-HRP (GE Healthcare Europe GmbH, Freiburg, Germany [NA9310V]) conjugate 1:5000 follow by visualization with AceGlow™ (VWR PEQL37) on a FUSION FX7 CCD camera system (Vilber Lourmat Deutschland GmbH, Eberhardzell, Germany).
# [6] = molecular target: T1, RNA recognition motif (RRM) of RBM20 (Homo sapiens, UniProt Q5T481); assay: Surface plasmon resonance, immobilized RBM20-RRM; assay type: binding; conditions: SPR, increasing concentrations
# T1 construct: The RRM domain of RBM20 was cloned into pGEX-6P-1 bacterial expression plasmid; GST (N); made in house; host or cells: E. coli Rosetta 2 (DE3)
# T1 sequence (Q5T481 518-593 limits assumed): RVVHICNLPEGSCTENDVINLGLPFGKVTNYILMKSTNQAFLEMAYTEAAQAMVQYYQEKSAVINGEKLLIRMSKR
# Description: The RRM domain of RBM20 was cloned into pGEX-6P-1 bacterial expression plasmid and expressed in E. coli Rosetta™ 2 (DE3) (Novagen by Merck KgaA, Darmstadt, Germany). After purification of the recombinant protein using glutathione-sepharose (Sigma-Aldrich Chemie GmbH, Munich, Germany) the purified fraction was dialyzed o/n in reaction buffer (20 mM HEPES pH7, 200 mM NaCl, 1 mM MgCl2, 10% glycerol). The surface plasmon resonance study (SPR) was performed on a Biacore T100 (GE Healthcare Europe GmbH, Freiburg, Germany) using amine coupling. Chip surface was activated with 0.2 M EDC/0.4 M NHS. 30 μg of human serum albumin (HSA) (positive control) or RBM20-RRM were linked to the activated chip surface at pH 4.5 in 10 mM sodium acetate.
# [7] = molecular target: human serum albumin (HSA) (Homo sapiens, UniProt P02768); assay: Surface plasmon resonance, immobilized human serum albumin (positive control); assay type: binding; conditions: SPR, increasing concentrations
# Chain of human serum albumin (HSA) (P02768 25-609): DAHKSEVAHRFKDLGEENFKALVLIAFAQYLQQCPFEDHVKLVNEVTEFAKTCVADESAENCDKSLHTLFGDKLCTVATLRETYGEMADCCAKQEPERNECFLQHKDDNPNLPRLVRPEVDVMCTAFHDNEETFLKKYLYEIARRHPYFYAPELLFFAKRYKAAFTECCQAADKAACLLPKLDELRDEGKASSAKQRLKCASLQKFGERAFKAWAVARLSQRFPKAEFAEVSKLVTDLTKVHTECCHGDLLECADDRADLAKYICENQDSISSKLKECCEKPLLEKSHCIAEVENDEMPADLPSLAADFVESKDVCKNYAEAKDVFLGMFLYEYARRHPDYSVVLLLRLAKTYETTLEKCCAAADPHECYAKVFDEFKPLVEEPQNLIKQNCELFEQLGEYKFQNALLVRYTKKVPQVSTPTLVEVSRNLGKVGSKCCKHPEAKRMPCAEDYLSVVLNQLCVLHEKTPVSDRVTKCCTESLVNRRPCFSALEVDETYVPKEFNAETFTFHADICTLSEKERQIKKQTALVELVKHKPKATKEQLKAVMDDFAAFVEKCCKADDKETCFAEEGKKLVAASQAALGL
# [8] = tested on: HEK293 cells gene expression; assay: Expression profiling of digitoxin treated HEK293 cells (GSE36058); assay type: cell-based, human; conditions: digitoxin treated HEK293, GEO dataset GSE36058
# Description: Expression profiling data (Gene Expression Omnibus—GSE36058) was analyzed using AltAnalyze [16]—gene expression cut-off = 1.0.
# [9] = FLuc/RLuc ratio, HEK293 cells, 96-well format, inset table of figure, read-out: Splicing IC50
# [10] = HEK293, Table 1, read-out: IC50 Splicing HEK293 cells
# [11] = dose response fit, head prints [μM], fits IC50 only
compound,measurement,setting,value
COc1ccc(-c2cc(=O)c3c(O)cc(O)c(-c4cc(-c5cc(=O)c6c(O)cc(O)cc6o5)ccc4OC)c3o2)cc1 [Isoginkgetin],IC50,[1],10800 ± 13100 nM
same,IC50,[2]; [9],178000 nM
same,dose at which an effect on RBM20 dependent splicing and general mRNA maturation was found,[2]; only at the highest toxic dose,30 µM
same,intron retention / mRNA maturation (in words),[3],reduces alternative splicing and mRNA maturation; also recorded: affects mRNA maturation with increasing concentration
C[C@@H]1O[C@@H](O[C@H]2C[C@@H](O)[C@]3(CO)[C@H]4[C@H](O)C[C@]5(C)[C@@H](C6=CC(=O)OC6)CC[C@]5(O)[C@@H]4CC[C@]3(O)C2)[C@H](O)[C@H](O)[C@H]1O [Ouabain],IC50,[4],0.56 nM
same,effect on RBM20-mediated titin splicing (in words),"[2]; DLR assay, HEK293",suppresses RBM20 mediated titin splicing
same,IC50,[2]; [10],1670 nM
C[C@]12CC[C@H]3[C@@H](CC[C@]4(O)C[C@@H](O)CC[C@]34CO)[C@@]1(O)CC[C@@H]2C1=CC(=O)OC1 [Strophanthidol],IC50,[1],3070 ± 634 nM
same,IC50,[2]; [9],3840 ± 443 nM
"CC(=O)O[C@H]1CC[C@@]2(C)[C@H](CC[C@@H]3[C@@H]2CC[C@]2(C)[C@@H](C4=CC(=O)OC4)CC[C@]32O)C1 [Digitoxigenin-3-acetate, Digitoxigenin 3-acetate]",effect on RBM20-mediated titin splicing (in words),"[2]; DLR assay, HEK293",independently validated
Cymarol,effect on RBM20-mediated titin splicing (in words),"[2]; DLR assay, HEK293",independently validated
same,concentration at which effect on titin splicing starts,"[2]; DLR assay, N = 4",< 100 nM
CC(C)C[C@@H](C=O)NC(=O)[C@H](CC(C)C)NC(=O)[C@H](CC(C)C)NC(=O)OCc1ccccc1 [MG132] (Cbz-Leu-Leu-Leu-aldehyde),rescue of RBM20 protein expression under digoxin,[5],did not rescue RBM20 protein expression
C[C@]12CC[C@H](O)C[C@H]1CC[C@@H]1[C@@H]2CC[C@]2(C)[C@@H](C3=CC(=O)OC3)[C@@H](O)C[C@]12O [Gitoxigenin],effect on RBM20-mediated titin splicing (in words),"[2]; DLR assay, HEK293",independently validated
C[C@]12CC[C@H](O)C[C@H]1CC[C@@H]1[C@@H]2CC[C@]2(C)[C@@H](C3=CC(=O)OC3)CC[C@]12O [Digitoxigenin],binding to RNA recognition motif (RRM) of RBM20,[6],not the RNA recognition motif (RRM) of RBM20
same,binding to human serum albumin (HSA),[7],strongly bind
same,IC50,[1],468 ± 26.9 nM
same,IC50,"[2]; HEK293, read-out: Splicing IC50",417 ± 99.5 nM
C[C@]12CCC(=O)C=C1CC[C@@H]1[C@@H]2[C@@H](O)C[C@@]2(C)[C@H]1CC[C@]2(O)C(=O)CO [Hydrocortisone],effect on RBM20-mediated titin splicing (in words),"[2]; DLR assay, HEK293",did not interfere with splicing; also recorded: does not interfere with splicing activity; also recorded: do not interfere with RBM20 dependent splicing
C[C@H]1O[C@@H](O[C@H]2[C@@H](O)C[C@H](O[C@H]3[C@@H](O)C[C@H](O[C@H]4CC[C@@]5(C)[C@H](CC[C@@H]6[C@@H]5CC[C@]5(C)[C@@H](C7=CC(=O)OC7)CC[C@]65O)C4)O[C@@H]3C)O[C@@H]2C)C[C@H](O)[C@@H]1O [Digitoxin],binding to RNA recognition motif (RRM) of RBM20,[6],not the RNA recognition motif (RRM) of RBM20
same,IC50,[4],0.25 nM
same,binding to human serum albumin (HSA),[7],strongly bind
same,proteins associated with RBM20 dependent splicing down regulated (of 39),[8],10
same,proteins associated with RBM20 dependent splicing upregulated (of 39),[8],8
same,IC50,[1],66.3 ± 5.5 nM
same,Viability Hill Coeff.,[1]; [11],2.0260 ± 0.2941
same,Viability Max,"[1]; fit maximum of relative viability, head prints [μM], fits IC50 only",1.0033 ± 0.0211
same,effect on RBM20-mediated titin splicing (in words),"[2]; DLR assay, HEK293",efficiently inhibit RBM20 mediated splicing
same,IC50,[2]; [10],56 nM
same,Splicing Hill Coeff.,[2]; [11],2.3582 ± 1.3110
CO[C@H]1C[C@H](O[C@H]2CC[C@@]3(C)[C@H](CC[C@@H]4[C@@H]3CC[C@]3(C)[C@@H](C5=CC(=O)OC5)[C@@H](OC(C)=O)C[C@]43O)C2)O[C@@H](C)[C@@H]1O [Oleandrin],IC50,[1],30.5 ± 1.2 nM
same,IC50,"[2]; DLR assay HEK293, read-out: splicing IC50",20 nM
